Row | SMILES | melting point [°C]
1 | COc1cccc(-c2nnc(-c3ccc(-c4cc(=O)c5ccccc5o4)cc3)o2)c1 [Compound 14, 2-(4-(5-(3-Methoxyphenyl)-1,3,4-oxadiazol-2-yl)phenyl)-4H-chromen-4-one] | 299 to 300
2 | O=c1cc(-c2ccc(-c3nnc(-c4cccnc4)o3)cc2)oc2ccccc12 [Compound 17, 2-(4-(5-(Pyridin-3-yl)-1,3,4-oxadiazol-2-yl)phenyl)-4H-chromen-4-one] | 280 to 281
3 | O=c1cc(-c2ccc(-c3nnc(-c4ccncc4)o3)cc2)oc2ccccc12 [Compound 18, 2-(4-(5-(Pyridin-4-yl)-1,3,4-oxadiazol-2-yl)phenyl)-4H-chromen-4-one] | 288 to 289
4 | O=c1cc(-c2ccc(-c3nnc(Cc4ccccc4Cl)o3)cc2)oc2ccccc12 [Compound 3, 2-(4-(5-(2-Chlorobenzyl)-1,3,4-oxadiazol-2-yl)phenyl)-4H-chromen-4-one] | 276 to 277
5 | Cc1ccc(-c2nnc(-c3ccc(-c4cc(=O)c5ccccc5o4)cc3)o2)cc1 [Compound 7, 2-(4-(5-(p-Tolyl)-1,3,4-oxadiazol-2-yl)phenyl)-4H-chromen-4-one] | 270 to 271
6 | O=c1cc(-c2ccc(-c3nnc(-c4cccc(F)c4)o3)cc2)oc2ccccc12 [Compound 5, 2-(4-(5-(3-Fluorophenyl)-1,3,4-oxadiazol-2-yl)phenyl)-4H-chromen-4-one] | 294 to 295
7 | O=c1cc(-c2ccc(-c3nnc(-c4cccc(Cl)c4)o3)cc2)oc2ccccc12 [Compound 2, 2-(4-(5-(3-Chlorophenyl)-1,3,4-oxadiazol-2-yl)phenyl)-4H-chromen-4-one] | 282 to 283
8 | O=c1cc(-c2ccc(-c3nnc(-c4ccc(Cl)cc4)o3)cc2)oc2ccccc12 [Compound 1, 2-(4-(5-(4-Chlorophenyl)-1,3,4-oxadiazol-2-yl)phenyl)-4H-chromen-4-one] | 288 to 289
9 | O=c1cc(-c2ccc(-c3nnc(-c4ccccc4)o3)cc2)oc2ccccc12 [Compound 19, 2-(4-(5-Phenyl-1,3,4-oxadiazol-2-yl)phenyl)-4H-chromen-4-one] | 280 to 281
10 | COc1ccccc1-c1nnc(-c2ccc(-c3cc(=O)c4ccccc4o3)cc2)o1 [Compound 15, 2-(4-(5-(2-Methoxyphenyl)-1,3,4-oxadiazol-2-yl)phenyl)-4H-chromen-4-one] | 286 to 287
11 | COc1ccc(-c2nnc(-c3ccc(-c4cc(=O)c5ccccc5o4)cc3)o2)cc1 [Compound 13, 2-(4-(5-(4-Methoxyphenyl)-1,3,4-oxadiazol-2-yl)phenyl)-4H-chromen-4-one] | 307 to 308
12 | O=c1cc(-c2ccc(-c3nnc(-c4cccc([N+](=O)[O-])c4)o3)cc2)oc2ccccc12 [Compound 11, 2-(4-(5-(3-Nitrophenyl)-1,3,4-oxadiazol-2-yl)phenyl)-4H-chromen-4-one] | 296 to 297
13 | O=c1cc(-c2ccc(-c3nnc(-c4ccc([N+](=O)[O-])cc4)o3)cc2)oc2ccccc12 [Compound 10, 2-(4-(5-(4-Nitrophenyl)-1,3,4-oxadiazol-2-yl)phenyl)-4H-chromen-4-one] | 304 to 305
14 | O=c1cc(-c2ccc(-c3nnc(-c4ccccn4)o3)cc2)oc2ccccc12 [Compound 16, 2-(4-(5-(Pyridin-2-yl)-1,3,4-oxadiazol-2-yl)phenyl)-4H-chromen-4-one] | 270 to 271
15 | O=c1cc(-c2ccc(-c3nnc(-c4ccccc4F)o3)cc2)oc2ccccc12 [Compound 6, 2-(4-(5-(2-Fluorophenyl)-1,3,4-oxadiazol-2-yl)phenyl)-4H-chromen-4-one] | 291 to 292
16 | Cc1cccc(-c2nnc(-c3ccc(-c4cc(=O)c5ccccc5o4)cc3)o2)c1 [Compound 8, 2-(4-(5-(m-Tolyl)-1,3,4-oxadiazol-2-yl)phenyl)-4H-chromen-4-one] | 264 to 265
17 | O=c1cc(-c2ccc(-c3nnc(-c4ccc(F)cc4)o3)cc2)oc2ccccc12 [Compound 4, 2-(4-(5-(4-Fluorophenyl)-1,3,4-oxadiazol-2-yl)phenyl)-4H-chromen-4-one] | 299 to 300
18 | O=c1cc(-c2ccc(-c3nnc(-c4ccccc4[N+](=O)[O-])o3)cc2)oc2ccccc12 [Compound 12, 2-(4-(5-(2-Nitrophenyl)-1,3,4-oxadiazol-2-yl)phenyl)-4H-chromen-4-one] | 287 to 288
19 | Cc1ccccc1-c1nnc(-c2ccc(-c3cc(=O)c4ccccc4o3)cc2)o1 [Compound 9, 2-(4-(5-(o-Tolyl)-1,3,4-oxadiazol-2-yl)phenyl)-4H-chromen-4-one] | 260 to 261
